In ChEMBL document CHEMBL3885861, “Open TG-GATES”:

Organism: Rattus norvegicus
Test: Open TG-GATES - Regimen: Single
Type: toxicity, organism-based, Sprague-Dawley
Design: regimen Single, gender Male, age 6 weeks
Conditions: in vivo, po, route gavage; for KIDNEY_L / KIDNEY_R / KIDNEY_TOTAL: tissue Kidney; for LIVER: tissue Liver
[1] = 100 mg/kg, 3 h, tissue Blood, dose level Low
[2] = 100 mg/kg, 3 h, tissue Plasma, dose level Low
[3] = 100 mg/kg, 6 h, tissue Blood, dose level Low
[4] = 100 mg/kg, 6 h, tissue Plasma, dose level Low

## COC(=O)C1=C(C)NC(C)=C(C(=O)OC)C1c1ccccc1[N+](=O)[O-] [NIFEDIPINE]
0 mg/kg, 24 h, tissue Plasma, dose level Control
  gamma-GTP: 1 IU/L
100 mg/kg, 3 h, dose level Low
  TERMINAL_BW: 201.3 g
  KIDNEY_L: 0.9 g
  KIDNEY_R: 0.9 g
  KIDNEY_TOTAL: 1.8 g
  LIVER: 7.9 g
[1]
  Bas: 0%
  Eos: 1%
  Fbg: 279.6 mg/dL
  Hb: 12.9 g/dL
  Ht: 39.2%
  Lym: 71.8%
  MCH: 20.6 pg
  MCHC: 32.8%
  MCV: 62.6 fL
  Mono: 4.4%
  PT: 14.9 s
  Plat: 123.6 x10_4/uL
  RBC: 625.8 x10_4/ul
  Ret: 9.3%
  WBC: 127.1 x10_2/uL
[2]
  ALP: 1399 IU/L
  ALT: 44.8 IU/L
  AST: 78.6 IU/L
  CRE: 0.3 mg/dL
  Ca: 11.7 mg/dL
  Cl: 98.2 meq/L
  DBIL: 0.01 mg/dL
  GLC: 227.6 mg/dL
  IP: 9 mg/dL
  K: 4.7 meq/L
  LDH: 89.4 IU/L
  Na: 135.6 meq/L
  PL: 132 mg/dL
  RALB: 2.5 g/dL
  TBIL: 0.042 mg/dL
  TC: 76.2 mg/dL
  TG: 31.6 mg/dL
  TP: 5.3 g/dL
  gamma-GTP: 1.2 IU/L
100 mg/kg, 6 h, dose level Low
  TERMINAL_BW: 203.8 g
  KIDNEY_L: 0.9 g
  KIDNEY_R: 0.9 g
  KIDNEY_TOTAL: 1.7 g
  LIVER: 7.8 g
[3]
  APTT: 16.8 s
  Bas: 0%
  Eos: 0.4%
  Fbg: 278.2 mg/dL
  Hb: 12.8 g/dL
  Ht: 39.2%
  Lym: 76.2%
  MCH: 20.2 pg
  MCHC: 32.6%
  MCV: 61.7 fL
  Mono: 3.6%
  Neu: 18.6%
  PT: 15 s
  Plat: 124 x10_4/uL
  RBC: 634.8 x10_4/ul
  Ret: 9.2%
  WBC: 96.4 x10_2/uL
[4]
  ALP: 1423.2 IU/L
  ALT: 54.6 IU/L
  AST: 82.2 IU/L
  BUN: 32.4 mg/dL
  CRE: 0.2 mg/dL
  Ca: 11.3 mg/dL
  Cl: 98.6 meq/L
  DBIL: 0.01 mg/dL
  GLC: 220.6 mg/dL
  IP: 10.7 mg/dL
  K: 5.2 meq/L
  LDH: 72.8 IU/L
  Na: 135.8 meq/L
  PL: 141.2 mg/dL
  RALB: 2.6 g/dL
  TBIL: 0.042 mg/dL
  TC: 86.4 mg/dL
  TG: 20.8 mg/dL
  TP: 5.5 g/dL
  gamma-GTP: 1.2 IU/L
100 mg/kg, 9 h, dose level Low
  TERMINAL_BW: 204.8 g
